Data on 26 compounds can be found in ChEMBL document CHEMBL5291721, “A preclinical secondary pharmacology resource illuminates target-adverse drug reaction associations of marketed drugs” (Nat Commun, 2023).

Experiment [1] deals with T1, Corticotropin-releasing factor receptor 1 (Homo sapiens, UniProt P34998).
T1 sequence (P34998 whole entry): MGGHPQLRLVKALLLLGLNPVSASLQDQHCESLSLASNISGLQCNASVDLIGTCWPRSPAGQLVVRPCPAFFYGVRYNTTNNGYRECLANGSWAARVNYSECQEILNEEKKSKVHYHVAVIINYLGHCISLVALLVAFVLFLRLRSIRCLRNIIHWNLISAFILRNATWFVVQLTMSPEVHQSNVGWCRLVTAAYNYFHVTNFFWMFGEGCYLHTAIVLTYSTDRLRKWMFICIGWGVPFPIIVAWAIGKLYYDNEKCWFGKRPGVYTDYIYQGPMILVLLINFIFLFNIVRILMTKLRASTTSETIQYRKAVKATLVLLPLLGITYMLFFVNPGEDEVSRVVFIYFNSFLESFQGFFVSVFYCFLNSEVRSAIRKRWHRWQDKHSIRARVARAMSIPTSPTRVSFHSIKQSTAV

In a further experiment the target is T2, B1 bradykinin receptor (Homo sapiens, UniProt P46663).
T2 sequence (P46663 whole entry): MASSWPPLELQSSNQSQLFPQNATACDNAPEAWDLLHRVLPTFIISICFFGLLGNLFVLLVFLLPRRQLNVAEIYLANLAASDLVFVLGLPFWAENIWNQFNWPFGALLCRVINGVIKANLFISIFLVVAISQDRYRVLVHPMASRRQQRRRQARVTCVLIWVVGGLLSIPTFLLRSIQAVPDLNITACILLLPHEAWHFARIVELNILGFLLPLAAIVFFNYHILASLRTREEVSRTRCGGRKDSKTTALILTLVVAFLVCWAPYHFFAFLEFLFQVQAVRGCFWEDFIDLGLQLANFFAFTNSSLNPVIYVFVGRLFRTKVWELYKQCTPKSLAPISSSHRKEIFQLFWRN

The next experiment addresses D(1A) dopamine receptor (Homo sapiens, UniProt P21728).
The target of experiment [2] is T3, Gastric inhibitory polypeptide receptor (Homo sapiens, UniProt P48546).
T3 sequence (P48546 whole entry): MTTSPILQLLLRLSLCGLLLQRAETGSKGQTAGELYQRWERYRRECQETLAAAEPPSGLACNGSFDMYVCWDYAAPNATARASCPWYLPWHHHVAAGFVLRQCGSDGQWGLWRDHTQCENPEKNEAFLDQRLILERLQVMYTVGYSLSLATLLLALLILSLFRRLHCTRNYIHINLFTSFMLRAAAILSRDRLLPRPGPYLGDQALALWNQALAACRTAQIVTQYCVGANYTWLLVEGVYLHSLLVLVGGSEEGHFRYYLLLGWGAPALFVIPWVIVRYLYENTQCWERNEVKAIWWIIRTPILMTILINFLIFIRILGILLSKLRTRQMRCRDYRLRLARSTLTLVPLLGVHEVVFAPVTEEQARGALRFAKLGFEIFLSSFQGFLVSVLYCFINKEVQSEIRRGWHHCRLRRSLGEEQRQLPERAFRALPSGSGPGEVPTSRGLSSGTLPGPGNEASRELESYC

Experiment [3] deals with T4, Gamma-aminobutyric acid receptor subunit alpha-1/alpha-2/beta-2/gamma-2 (Homo sapiens, UniProt P14867+P18507+P47869+P47870). The class given is functional, cell-based.
T4 sequence (P14867 whole entry): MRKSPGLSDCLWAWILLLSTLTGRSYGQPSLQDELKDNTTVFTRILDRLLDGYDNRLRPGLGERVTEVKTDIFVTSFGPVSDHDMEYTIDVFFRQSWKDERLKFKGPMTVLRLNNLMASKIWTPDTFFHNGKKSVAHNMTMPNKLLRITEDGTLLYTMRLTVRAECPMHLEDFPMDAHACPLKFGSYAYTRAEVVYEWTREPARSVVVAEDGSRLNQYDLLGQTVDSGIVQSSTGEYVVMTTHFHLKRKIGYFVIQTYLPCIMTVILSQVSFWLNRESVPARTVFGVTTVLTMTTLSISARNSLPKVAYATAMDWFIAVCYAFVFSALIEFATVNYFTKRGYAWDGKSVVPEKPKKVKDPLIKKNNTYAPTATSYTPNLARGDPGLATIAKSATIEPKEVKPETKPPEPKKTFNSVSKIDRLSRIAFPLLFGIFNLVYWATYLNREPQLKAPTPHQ
T4 sequence (P47870 whole entry): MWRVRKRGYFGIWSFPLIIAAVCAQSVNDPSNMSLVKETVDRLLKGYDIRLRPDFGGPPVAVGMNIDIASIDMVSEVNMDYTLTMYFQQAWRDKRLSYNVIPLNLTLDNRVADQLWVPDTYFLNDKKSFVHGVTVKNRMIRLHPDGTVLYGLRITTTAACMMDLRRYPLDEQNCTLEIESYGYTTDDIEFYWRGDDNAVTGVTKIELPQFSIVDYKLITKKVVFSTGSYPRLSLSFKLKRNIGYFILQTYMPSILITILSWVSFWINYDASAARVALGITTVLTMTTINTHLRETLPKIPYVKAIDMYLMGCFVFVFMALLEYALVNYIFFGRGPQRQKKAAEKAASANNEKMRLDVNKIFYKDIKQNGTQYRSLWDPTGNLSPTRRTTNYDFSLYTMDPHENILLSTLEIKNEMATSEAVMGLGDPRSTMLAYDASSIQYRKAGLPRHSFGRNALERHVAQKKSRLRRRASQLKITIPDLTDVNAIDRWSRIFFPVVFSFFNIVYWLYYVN
T4 sequence (P18507 whole entry): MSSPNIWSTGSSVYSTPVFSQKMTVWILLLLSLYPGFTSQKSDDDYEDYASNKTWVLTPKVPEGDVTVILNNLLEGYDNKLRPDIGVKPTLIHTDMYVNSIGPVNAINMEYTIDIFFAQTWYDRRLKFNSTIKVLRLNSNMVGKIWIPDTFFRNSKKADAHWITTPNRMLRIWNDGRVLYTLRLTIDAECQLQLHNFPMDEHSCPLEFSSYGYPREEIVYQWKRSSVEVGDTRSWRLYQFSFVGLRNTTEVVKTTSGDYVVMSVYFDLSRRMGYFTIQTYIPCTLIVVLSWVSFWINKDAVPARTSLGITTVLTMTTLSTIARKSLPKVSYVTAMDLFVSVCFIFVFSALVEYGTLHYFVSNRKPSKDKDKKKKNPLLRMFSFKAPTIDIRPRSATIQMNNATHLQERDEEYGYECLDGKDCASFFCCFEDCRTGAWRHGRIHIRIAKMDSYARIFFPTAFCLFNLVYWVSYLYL
T4 sequence (P47869 whole entry): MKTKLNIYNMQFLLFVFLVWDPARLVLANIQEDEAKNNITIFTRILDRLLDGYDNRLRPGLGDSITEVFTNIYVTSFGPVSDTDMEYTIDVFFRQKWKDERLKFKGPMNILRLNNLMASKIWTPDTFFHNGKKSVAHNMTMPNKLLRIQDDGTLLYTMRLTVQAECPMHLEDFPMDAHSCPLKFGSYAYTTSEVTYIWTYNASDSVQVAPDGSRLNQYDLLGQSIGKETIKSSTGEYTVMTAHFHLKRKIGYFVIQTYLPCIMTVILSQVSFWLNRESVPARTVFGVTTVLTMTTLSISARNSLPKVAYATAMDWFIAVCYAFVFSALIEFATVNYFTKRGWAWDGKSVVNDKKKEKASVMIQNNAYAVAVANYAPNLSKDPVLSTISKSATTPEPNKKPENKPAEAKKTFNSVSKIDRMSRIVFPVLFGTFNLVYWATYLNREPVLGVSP
The target of experiment [4] is T4, Gamma-aminobutyric acid receptor subunit alpha-1/alpha-2/beta-2/gamma-2. The experiment is classed as functional, cell-based. The source holds these as a separate data set.
Experiment [5] has as its target 5-hydroxytryptamine receptor 2B (Homo sapiens, UniProt P41595).
Experiment [6] has as its target T5, Alpha-2A adrenergic receptor (Homo sapiens, UniProt P08913).
T5 sequence (P08913 whole entry): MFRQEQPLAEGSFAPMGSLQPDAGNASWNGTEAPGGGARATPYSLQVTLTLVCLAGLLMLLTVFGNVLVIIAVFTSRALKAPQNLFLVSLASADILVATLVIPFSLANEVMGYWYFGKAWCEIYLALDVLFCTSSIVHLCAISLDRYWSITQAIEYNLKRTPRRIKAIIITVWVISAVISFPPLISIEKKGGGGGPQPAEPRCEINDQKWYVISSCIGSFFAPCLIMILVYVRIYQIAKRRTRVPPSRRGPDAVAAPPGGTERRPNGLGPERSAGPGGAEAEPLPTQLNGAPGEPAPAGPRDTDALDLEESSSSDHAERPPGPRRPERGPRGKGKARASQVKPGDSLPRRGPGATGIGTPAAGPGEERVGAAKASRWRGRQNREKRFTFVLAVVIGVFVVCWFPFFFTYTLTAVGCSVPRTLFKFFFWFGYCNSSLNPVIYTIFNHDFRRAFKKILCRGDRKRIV
Further: assay procedure not described here.

Chain of D(1A) dopamine receptor (P21728 whole entry): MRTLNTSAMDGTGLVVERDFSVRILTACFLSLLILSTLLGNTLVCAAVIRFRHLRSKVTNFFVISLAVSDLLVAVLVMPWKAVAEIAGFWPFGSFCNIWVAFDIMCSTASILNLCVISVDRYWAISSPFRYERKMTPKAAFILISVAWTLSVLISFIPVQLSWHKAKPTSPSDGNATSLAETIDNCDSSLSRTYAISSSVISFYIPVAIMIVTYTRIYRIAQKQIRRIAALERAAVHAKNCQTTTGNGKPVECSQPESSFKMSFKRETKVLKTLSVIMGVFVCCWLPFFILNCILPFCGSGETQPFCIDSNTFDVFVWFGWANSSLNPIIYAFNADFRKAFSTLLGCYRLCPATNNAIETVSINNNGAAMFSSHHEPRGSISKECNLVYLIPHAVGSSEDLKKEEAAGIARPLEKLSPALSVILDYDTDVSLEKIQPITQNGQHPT
Chain of 5-hydroxytryptamine receptor 2B (P41595 whole entry): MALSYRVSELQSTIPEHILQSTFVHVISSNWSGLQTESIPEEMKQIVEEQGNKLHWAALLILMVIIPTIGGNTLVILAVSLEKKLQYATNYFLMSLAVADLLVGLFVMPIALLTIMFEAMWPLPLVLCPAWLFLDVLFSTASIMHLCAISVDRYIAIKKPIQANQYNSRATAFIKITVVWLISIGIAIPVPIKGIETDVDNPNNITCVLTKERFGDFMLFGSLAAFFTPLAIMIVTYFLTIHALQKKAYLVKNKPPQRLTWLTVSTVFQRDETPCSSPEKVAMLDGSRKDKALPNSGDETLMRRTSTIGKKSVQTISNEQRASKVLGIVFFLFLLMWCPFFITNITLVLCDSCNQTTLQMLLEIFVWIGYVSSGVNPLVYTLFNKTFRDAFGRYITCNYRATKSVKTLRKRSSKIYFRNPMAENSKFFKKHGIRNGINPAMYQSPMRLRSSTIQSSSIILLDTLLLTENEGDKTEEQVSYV

As usually defined, the AC50 is the midpoint of the concentration-response curve, whichever way the signal moves. A higher AC50 goes with weaker potency. With `CC(C)(N)Cc1ccccc1` [PHENTERMINE], the AC50 in experiment [1] was greater than 30 µM; on B1 bradykinin receptor, greater than 30 µM; at D(1A) dopamine receptor, greater than 10 µM; in experiment [2], greater than 30 µM.

As for `CCN1C(=O)NC(c2ccccc2)C1=O` (stereo unspecified) [ETHOTOIN], the AC50 in experiment [3] and in experiment [4] was greater than 30 µM in each case.

With `CCN(CC)C(C)C(=O)c1ccccc1` (stereo unspecified) [DIETHYLPROPION], the AC50 is greater than 30 µM in experiment [1]; greater than 10 µM in experiment [5]; greater than 30 µM at B1 bradykinin receptor; 4.46 µM in experiment [6]; greater than 10 µM on D(1A) dopamine receptor; greater than 30 µM in experiment [2].

`CN1CCC(=C2c3ccccc3CC(=O)c3sccc32)CC1` [KETOTIFEN] returned a half-maximal activity concentration (AC50) in experiment [5] of 0.0328 µM. This counts as double-digit nanomolar.

For the compound `CS(=O)(=O)NC(=O)CCC/C=C\C[C@H]1C(=O)C[C@@H](O)[C@@H]1/C=C/[C@@H](O)COc1ccccc1` [SULPROSTONE], the AC50 in experiment [3] and in experiment [4] was greater than 30 µM each time.

As for `CCN(CC)CCCN(c1ccccc1)C1Cc2ccccc2C1` [APRINDINE], the AC50 in experiment [3] and in experiment [4] was greater than 30 µM each time.

With `COc1ccc2c3c1O[C@H]1C(=O)CC[C@H]4[C@@H](C2)N(C)CC[C@]314` [HYDROCODONE], the AC50 is greater than 30 µM in experiment [1]; greater than 10 µM in experiment [5]; greater than 30 µM at B1 bradykinin receptor; greater than 10 µM in experiment [6]; greater than 10 µM at D(1A) dopamine receptor; greater than 30 µM in experiment [2].

Turning to `CC(NC(C)(C)C)C(=O)c1cccc(Cl)c1` (stereo unspecified) [BUPROPION], the AC50 was greater than 30 µM in experiment [1]; greater than 10 µM in experiment [5]; greater than 30 µM on B1 bradykinin receptor; greater than 10 µM in experiment [6]; greater than 10 µM at D(1A) dopamine receptor; greater than 30 µM in experiment [2].

As to `CN1C2CCCC1CC(NC(=O)c1nn(C)c3ccccc13)C2` (stereo unspecified) [GRANISETRON], the AC50 in experiment [1] is greater than 30 µM; on B1 bradykinin receptor, greater than 30 µM; in experiment [6], greater than 10 µM; at D(1A) dopamine receptor, greater than 10 µM; in experiment [2], greater than 30 µM.

Consider `COc1ccc(C(Cl)=C(c2ccc(OC)cc2)c2ccc(OC)cc2)cc1` [CHLOROTRIANISENE], for which the AC50 in experiment [3] and in experiment [4] was greater than 30 µM each time.

On to `CC(=O)OCC1=C(C(=O)O)N2C(=O)[C@@H](NC(=O)Cc3cccs3)[C@H]2SC1` [CEPHALOTHIN], for which the AC50 in experiment [3] and in experiment [4] was greater than 30 µM each time.

With `CCN(CC)CC(=O)Nc1c(C)cccc1C` [LIDOCAINE], the AC50 (in experiment [1]; on B1 bradykinin receptor; in experiment [2]) was greater than 30 µM in each case.

As for `O=C(O[C@H]1C[N+]2(CCCOc3ccccc3)CCC1CC2)C(O)(c1cccs1)c1cccs1` [ACLIDINIUM BROMIDE], the AC50 is greater than 30 µM in experiment [1]; greater than 10 µM in experiment [5]; greater than 30 µM on B1 bradykinin receptor; 2.27 µM in experiment [6]; greater than 10 µM at D(1A) dopamine receptor; greater than 30 µM in experiment [2].

For `CN1C(=O)CN=C(c2ccccc2F)c2cc([N+](=O)[O-])ccc21` [FLUNITRAZEPAM], the AC50 in experiment [1] was greater than 30 µM; in experiment [5] it was greater than 10 µM; on B1 bradykinin receptor, greater than 30 µM; in experiment [6], greater than 10 µM; on D(1A) dopamine receptor, greater than 10 µM; in experiment [2], greater than 30 µM.

For the compound `Cc1ccc(-c2ncc(Cl)cc2-c2ccc(S(C)(=O)=O)cc2)cn1` [ETORICOXIB], the AC50 in experiment [1] is greater than 30 µM; in experiment [5], greater than 10 µM; on B1 bradykinin receptor it was greater than 30 µM; in experiment [6], greater than 10 µM; on D(1A) dopamine receptor, greater than 10 µM; in experiment [2], greater than 30 µM.

For the compound `Oc1cc(O)c2c(c1)O[C@H](c1ccc(O)c(O)c1)[C@@H](O)C2` [CIANIDANOL], the AC50 in experiment [1] was greater than 30 µM; in experiment [5], greater than 10 µM; at B1 bradykinin receptor, greater than 30 µM; in experiment [6] it was greater than 10 µM; at D(1A) dopamine receptor it was greater than 10 µM; in experiment [2] it was greater than 30 µM.

Take `Cc1nnc2n1-c1ccc(Cl)cc1C(c1ccccc1)=NC2` [ALPRAZOLAM]: the AC50 in experiment [1] is greater than 30 µM; in experiment [5], greater than 10 µM; on B1 bradykinin receptor it was greater than 30 µM; in experiment [6], greater than 10 µM; at D(1A) dopamine receptor it was greater than 10 µM; in experiment [2], greater than 30 µM.

As to `N=C(N)NC(=O)Cc1c(Cl)cccc1Cl` [GUANFACINE], the concentration at half-maximal activity (AC50) is 1.34 µM in experiment [5] and greater than 30 µM in experiment [4].

For the compound `CC1=C(CC(=O)O)c2cc(F)ccc2/C1=C\c1ccc([S+](C)[O-])cc1` (stereo unspecified), the AC50 in experiment [1] is greater than 30 µM; in experiment [5], greater than 10 µM; at B1 bradykinin receptor, greater than 30 µM; in experiment [6], greater than 10 µM; at D(1A) dopamine receptor it was greater than 10 µM; in experiment [2], greater than 30 µM.

On to `CCCCCCOC(=O)NC(=N)c1ccc(NCc2nc3cc(C(=O)N(CCC(=O)OCC)c4ccccn4)ccc3n2C)cc1` [DABIGATRAN ETEXILATE], for which the AC50 in experiment [3] and in experiment [4] was greater than 30 µM throughout.

Take `CC1NCCOC1c1ccccc1` (stereo unspecified) [PHENMETRAZINE]: the AC50 in experiment [1] is greater than 30 µM; on B1 bradykinin receptor it was greater than 30 µM; on D(1A) dopamine receptor it was greater than 10 µM; in experiment [2], greater than 30 µM.

In experiment [5], `OCCN(CCO)c1nc(N2CCCCC2)c2nc(N(CCO)CCO)nc(N3CCCCC3)c2n1` [DIPYRIDAMOLE] gave an AC50 greater than 30 µM.

Take `CC1=C(C(=O)O)N2C(=O)[C@@H](NC(=O)[C@H](N)C3=CCC=CC3)[C@H]2SC1` [CEPHRADINE]: the AC50 in experiment [3] and in experiment [4] was greater than 30 µM in each case.

In the case of `O=C1CN=C(c2ccccc2Cl)c2cc([N+](=O)[O-])ccc2N1` [CLONAZEPAM], the AC50 in experiment [1] is greater than 30 µM; in experiment [5], greater than 10 µM; on B1 bradykinin receptor, greater than 30 µM; in experiment [6] it was greater than 10 µM; at D(1A) dopamine receptor, greater than 10 µM; in experiment [2], greater than 30 µM.

As to `CC1Cc2ccccc2N1NC(=O)c1ccc(Cl)c(S(N)(=O)=O)c1` (stereo unspecified) [INDAPAMIDE], the AC50 in experiment [6] was greater than 10 µM.

Regarding `CCOC(=O)C1=C(C)NC(C)=C(C(=O)OC)C1c1cccc(Cl)c1Cl` (stereo unspecified) [FELODIPINE], the AC50 was greater than 30 µM in experiment [1]; greater than 10 µM in experiment [5]; greater than 30 µM on B1 bradykinin receptor; greater than 10 µM in experiment [6]; greater than 10 µM on D(1A) dopamine receptor; greater than 30 µM in experiment [2].
